For orientation: solubility means the dissolved amount per volume that the medium holds. Read a high solubility as much dissolved substance.

The record followed here is patent US7288622B1, “Composition for treatment of burns and wounds” (Issar Pharmaceuticals Pvt Ltd, priority 2006, dated 2007).

≈ marks a conversion by molar mass, not a printed value. Residues, ends and D or L forms follow the SMILES beside them.

One data set can be described thus: physchem. The format is physicochemical. The source says: The molecular weight of the peptide is 2776 and 3388 with counter ions. The peptide is water-soluble and forms an alpha helical secondary protein structure.
The next data set deals with rats. As to the kind of experiment: Acute toxicity test of the peptide in rats. The format is in vivo. To be noted: 8.95 mg/kg intraperitoneal, single dose, inspected at 3rd, 6th, 12th and 24th hour, animals active on 14th day. How it is done:
(§1) The safety of the peptide was tested with mice and rats at age of 4 to 6 weeks. The tests were conducted with five female mice and rats and five male mice and rats. The dose of the peptide injected intraperitoneal was 8.95 mg/kg for rats and 12.53 mg/kg for mice. The acute toxicity test was conducted at 3rd, 6th, 12th and 24th hour after exposure to the peptide. […] The animals were active still on 14th day.

The subject of a further data set is mice. The data set is described as follows: Acute toxicity test of the peptide in mice. The format is in vivo. To be noted: 12.53 mg/kg intraperitoneal, single dose, inspected at 3rd, 6th, 12th and 24th hour, animals active on 14th day. How it is done: as §1

On to `C[C@H](NC(=O)[C@H](Cc1ccccc1)NC(=O)[C@H](C)NC(=O)[C@H](Cc1ccccc1)NC(=O)[C@H](CCCCN)NC(=O)[C@H](C)NC(=O)[C@H](Cc1ccccc1)NC(=O)[C@H](CCCCN)NC(=O)[C@H](CCCCN)NC(=O)[C@H](C)NC(=O)[C@H](Cc1ccccc1)NC(=O)[C@H](CCCCN)NC(=O)[C@H](CCCCN)NC(=O)[C@H](Cc1ccccc1)NC(=O)[C@H](CCCCN)NC(=O)[C@H](CCCCN)NC(=O)[C@H](C)NC(=O)[C@H](Cc1ccccc1)NC(=O)[C@H](CCCCN)NC(=O)[C@H](CCCCN)NC(=O)[C@H](C)NC(=O)[C@@H](N)Cc1ccccc1)C(=O)N[C@@H](Cc1ccccc1)C(=O)O` [peptide] (H-FAKKFAKKFKKFAKKFAKFAFAF-OH; N-terminus and C-terminus assumed), for which the “Solubility in 10% DMSO in saline” value in “physchem” was determined as 32.25 mM (≈ 89.5 mg/mL). Also, the concentration in solution in the data set “physchem” (saline or isotonic) (solubility) was 31.6 mM (≈ 87.6 mg/mL). The Acute lethality result with rats and in the data set with mice was “No lethality was found” in each case.
